Test results from patent publication US20090081194A1, “COMPOSITIONS AND METHODS FOR REDUCING RISK OF DEVELOPMENT, OR SEVERITY, OF INAPPROPRIATE IMMUNE RESPONSE IN EYES” (priority 2007, published 2009).

Columns and labels:
[1] = tested on: mouse peritoneal neutrophils; experiment: Cytokine production (ELISA) by activated mouse peritoneal neutrophils; format: cell-based; conditions: 15 hours
Protocol: In one experiment, mouse peritoneal neutrophils were isolated from C57BL/6 mice that had received intraperitoneal injection of 1% casein solution containing 0.5 mM MgCl2 and 0.99 mM CaCl2 16 hours and 3 hours prior to harvesting in Hank's balanced salt solution (“HBSS”) lavage. Collected cells were centrifuged (2000 rpm, 10 min) and washed twice in HBSS, prior to separation of granulocytes by Percol gradient at 31,500 rpm for 20 min. Cells were washed twice and resuspended in Dubelco's modified eagle's medium (“DMEM”) containing 10% fetal calf serum (Invitrogen, Basel Switzerland). Purity of 98% neutrophils was verified by Diff-Quik stain (VWR, Bridgeport, N.J.). Neutrophils (1×10^5/well) were pre-incubated with 100 ng/ml GM-CSF at 37° C. for 1 hour prior to exposure to compositions of the present invention comprising 0.08-10 μg/ml of inhibitory ODN 2088 (InvivoGen, San Diego, Calif.; sequence disclosed above) or a control composition containing 20 μg/ml of the control ODN 1911 (Operon Qiagen, Valencia, Calif.; having a sequence of […]), or the medium only, for 30 minutes prior to activation with 20 μg/ml of stimulatory ODN 1826 (Operon Qiagen, Valencia, Calif.; having a sequence of […]); 20 μg/ml of endotoxin-free DNA from E. coli K12 (InvivoGen, San Diego, Calif.); killed Staphylococcus aureus strain E2061740 (3×10^5 cfu/ml); 100 ng/ml of Pam3Cys (synthetic lipopeptide (S)-(2,3-bis(palmitoyloxy)-(2RS)-propyl)-N-palmitoyl-(R)-Cys-(S)-Ser-(S)-Lys4-OH, EMC Microcollections, Tubingen, Germany); or 200 ng/ml of LPS (ultra pure lipopolysaccharide from E. coli 0111:B4 strain, InvivoGen, San Diego, Calif.). After 15 hours at 37° C., supernates were collected for ELISA assay (R&D Systems, Minneapolis, Minn.) for pro-inflammatory cytokines macrophage inflammatory protein-2 (“MIP-2”), keratinocyte-derived chemokines (“KC”), IL-6, and TNF-α. […] The production of these pro-inflammatory cytokines was not affected when neutrophils activated by Pam3Cys or LPS were treated with a composition comprising the inhibitory ODN 2088. This not surprising in view of the fact that the inhibitory ODN 2088 inhibits the activation of TLR9 while LPS and Pam3Cys activate TLR4 and TLR2, respectively. Other inhibitors of TLR2 and TLR4 activation should be effective in suppressing corneal infiltrate induced by […], respectively.

[2] = tested on: C57BL/6 mouse cornea; experiment: Mouse keratitis: neutrophil infiltrate in abraded cornea; format: in vivo; conditions: topical on abraded cornea, 24 hours, FIG. 5
Protocol: In this experiment, 1 μl of test solution containing 20 μg/ml of the synthetic stimulatory ODN 1826, 10 μg/ml of endotoxin-free DNA from E. coli K12, 20 μg/ml of Pam3Cys, or 20 μg/ml LPS, along with a composition of the present invention containing the inhibitory ODN 2088, the control composition containing 20 μg/ml of ODN 1911, or medium only, was applied to a 1 mm^2 abraded area of central C57BL/6 mouse cornea that had been marked by sterile trephine (Miltex, Tuttlingen, Germany) and abraded with an Alger brush II (Alger, PagoVista, Texas). After 24 hours, the corneal infiltrate was determined as the number of neutrophils per corneal section. […] Other inhibitors of TLR2 and TLR4 activation should be effective in suppressing corneal infiltrate induced by Pam3Cys and LPS, respectively.

[3] = tested on: C57BL/6 mouse cornea; experiment: Corneal epithelium cytokines (ELISA) after stimulatory ODN on abraded mouse cornea; format: in vivo; conditions: stimulatory ODN 1826 20 μg/ml with ODN 2088 20 μg/ml, 5 hours; all three cytokines; FIG. 6
Protocol: In this experiment, 1 μl of test solution containing 20 μg/ml of the synthetic stimulatory ODN 1826, along with a composition of the present invention containing 20 μg/ml of the inhibitory ODN 2088, or a control composition containing 20 μg/ml of the control ODN 1911, or the medium only, was applied to a 1 mm^2 abraded area of central C57BL/6 mouse cornea that had been marked by sterile trephine (Miltex, Tuttlingen, Germany) and abraded with an Alger brush II (Alger, PagoVista, TX). After 5 hours, the corneal epithelium was separated after 20 minutes in 20 mM EDTA at 37° C. and placed into RPMI 1640 medium. Samples were disrupted by sonication for 88 seconds with 40% duty cycle (Vibracell; Sonics and Material, Danbury, Conn.). Cytokines were measured by ELISA assay (R&D Systems, Minneapolis, Minn.) for the pro-inflammatory cytokines MIP-2, KC, and human interferon-inducible protein 10 (“IP-10”).

[4] = biological target: T1, TLR9 (Homo sapiens, UniProt Q9NR96); conditions: Gursel et al. 2003; Stunz et al. 2002; cited from earlier work
T1 sequence (Q9NR96 26-1032): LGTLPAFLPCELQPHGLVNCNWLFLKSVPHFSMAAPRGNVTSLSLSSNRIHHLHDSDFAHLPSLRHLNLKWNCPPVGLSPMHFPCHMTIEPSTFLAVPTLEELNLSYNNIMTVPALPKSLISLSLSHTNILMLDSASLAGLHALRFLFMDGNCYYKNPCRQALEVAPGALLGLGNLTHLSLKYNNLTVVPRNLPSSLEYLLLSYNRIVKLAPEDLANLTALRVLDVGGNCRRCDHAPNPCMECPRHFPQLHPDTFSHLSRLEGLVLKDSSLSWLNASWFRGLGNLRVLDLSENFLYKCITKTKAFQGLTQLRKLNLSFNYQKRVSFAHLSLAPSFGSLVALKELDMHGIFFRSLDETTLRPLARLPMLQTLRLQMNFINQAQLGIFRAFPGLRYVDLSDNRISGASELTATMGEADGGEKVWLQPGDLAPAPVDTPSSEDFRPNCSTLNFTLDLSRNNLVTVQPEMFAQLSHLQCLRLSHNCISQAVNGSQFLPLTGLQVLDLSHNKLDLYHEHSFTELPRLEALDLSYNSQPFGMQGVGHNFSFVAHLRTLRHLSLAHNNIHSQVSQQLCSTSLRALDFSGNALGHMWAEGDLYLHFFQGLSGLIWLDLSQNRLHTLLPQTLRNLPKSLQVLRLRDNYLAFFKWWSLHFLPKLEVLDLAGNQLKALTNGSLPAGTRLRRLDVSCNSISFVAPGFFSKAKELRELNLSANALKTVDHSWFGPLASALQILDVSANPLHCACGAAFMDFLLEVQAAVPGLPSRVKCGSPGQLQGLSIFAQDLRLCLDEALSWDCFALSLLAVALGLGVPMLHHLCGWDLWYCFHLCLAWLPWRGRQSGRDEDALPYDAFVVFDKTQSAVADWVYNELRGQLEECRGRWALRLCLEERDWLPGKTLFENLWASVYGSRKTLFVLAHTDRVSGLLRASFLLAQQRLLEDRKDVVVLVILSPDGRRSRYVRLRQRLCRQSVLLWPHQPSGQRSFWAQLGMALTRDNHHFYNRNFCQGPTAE

TCCTGGCGGGGAAGT (chemistry not given here) [ODN 2088]
pro-inflammatory cytokine production by neutrophils (MIP-2, KC, IL-6, TNF-α) ([1]; activation with 100 ng/ml Pam3Cys): not affected | pro-inflammatory cytokine production by neutrophils (MIP-2, KC, IL-6, TNF-α) ([1]; activation with 200 ng/ml LPS): not affected | pro-inflammatory cytokine production by neutrophils (MIP-2, KC, IL-6, TNF-α) ([1]; activation with 20 μg/ml endotoxin-free DNA from E. coli K12, ODN 2088 0.08-10 μg/ml, dose dependent, FIGS. 1-4): inhibited pro-inflammatory cytokine production | pro-inflammatory cytokine production by neutrophils (MIP-2, KC, IL-6, TNF-α) ([1]; activation with 20 μg/ml stimulatory ODN 1826, ODN 2088 0.08-10 μg/ml, dose dependent, FIGS. 1-4): inhibited pro-inflammatory cytokine production | pro-inflammatory cytokine production by neutrophils (MIP-2, KC, IL-6, TNF-α) ([1]; activation with killed Staphylococcus aureus (3×10^5 cfu/ml)): nondetectable levels | corneal infiltrate, number of neutrophils per corneal section ([2]; LPS 20 μg/ml): not effective in suppressing corneal infiltrates | corneal infiltrate, number of neutrophils per corneal section ([2]; Pam3Cys 20 μg/ml): not effective in suppressing corneal infiltrates | corneal infiltrate, number of neutrophils per corneal section ([2]; bacterial DNA (E. coli K12) 10 μg/ml): reduced the number of infiltrating neutrophils | corneal infiltrate, number of neutrophils per corneal section ([2]; stimulatory ODN 1826 20 μg/ml): reduced the number of infiltrating neutrophils | corneal cytokine response (MIP-2, KC, IP-10) [3]: reduced cytokine response | colocalization of CpG DNA with TLR9 within endosomal vesicles [4]: block the colocalization
